Reference: PubChem BioAssay (NCI)
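Where inhibition never reached the appropriate level, the endpoint shown equals the highest concentration tested. Otherwise, values were interpolated linearly from a five-concentration, 48-hour dose response in 96-well plates. At the GI50, growth is halved. At the TGI there is no net growth.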

Key:
Assay in all cases: DTP human tumour cell line panel, 48 h
786-0 renal = system: 786-0 renal
A498 renal = system: A498 renal
A549 NSCLC = system: A549 NSCLC
ACHN renal = system: ACHN renal
BT-549 breast = system: BT-549 breast
CAKI-1 renal = system: CAKI-1 renal
CCRF-CEM leukemia = system: CCRF-CEM leukemia
COLO 205 colon = system: COLO 205 colon
DU-145 prostate = system: DU-145 prostate
EKVX NSCLC = system: EKVX NSCLC
HCC-2998 colon = system: HCC-2998 colon
HCT-116 colon = system: HCT-116 colon
HCT-15 colon = system: HCT-15 colon
HL-60(TB) leukemia = system: HL-60(TB) leukemia
HOP-62 NSCLC = system: HOP-62 NSCLC
HOP-92 NSCLC = system: HOP-92 NSCLC
HS 578T breast = system: HS 578T breast
HT29 colon = system: HT29 colon
IGROV1 ovarian = system: IGROV1 ovarian
K-562 leukemia = system: K-562 leukemia
KM12 colon = system: KM12 colon
LOX IMVI melanoma = system: LOX IMVI melanoma
M14 melanoma = system: M14 melanoma
MALME-3M melanoma = system: MALME-3M melanoma
MCF7 breast = system: MCF7 breast
MDA-MB-231 breast = system: MDA-MB-231 breast
MDA-MB-435 = system: MDA-MB-435
MOLT-4 leukemia = system: MOLT-4 leukemia
NCI-H226 lung = system: NCI-H226 lung
NCI-H23 lung = system: NCI-H23 lung
NCI-H460 lung = system: NCI-H460 lung
NCI-H522 lung = system: NCI-H522 lung
NCI/ADR-RES ovarian = system: NCI/ADR-RES ovarian
OVCAR-3 ovarian = system: OVCAR-3 ovarian
OVCAR-4 ovarian = system: OVCAR-4 ovarian
OVCAR-5 ovarian = system: OVCAR-5 ovarian
OVCAR-8 ovarian = system: OVCAR-8 ovarian
PC-3 prostate = system: PC-3 prostate
RPMI-8226 leukemia = system: RPMI-8226 leukemia
RXF 393 renal = system: RXF 393 renal
SF-268 CNS = system: SF-268 CNS
SF-295 CNS = system: SF-295 CNS
SF-539 CNS = system: SF-539 CNS
SK-MEL-2 melanoma = system: SK-MEL-2 melanoma
SK-MEL-28 melanoma = system: SK-MEL-28 melanoma
SK-MEL-5 melanoma = system: SK-MEL-5 melanoma
SK-OV-3 ovarian = system: SK-OV-3 ovarian
SN12C renal = system: SN12C renal
SNB-19 CNS = system: SNB-19 CNS
SNB-75 CNS = system: SNB-75 CNS
SR leukemia = system: SR leukemia
SW-620 colon = system: SW-620 colon
T-47D breast = system: T-47D breast
TK-10 renal = system: TK-10 renal
U251 CNS = system: U251 CNS
UACC-257 melanoma = system: UACC-257 melanoma
UACC-62 melanoma = system: UACC-62 melanoma
UO-31 renal = system: UO-31 renal

COc1cc2c(O[C@@H]3OC[C@H](OC(C)=O)[C@H](OC(C)=O)[C@H]3O)c3c(c(-c4ccc5c(c4)OCO5)c2cc1OC)C(=O)OC3
GI50 (786-0 renal): 2030 nM
TGI (786-0 renal): > 7810 nM
GI50 (A498 renal): 1130 nM
TGI (A498 renal): > 10000 nM
GI50 (A549 NSCLC): 613 nM
TGI (A549 NSCLC): > 10000 nM
GI50 (ACHN renal): 566 nM
TGI (ACHN renal): > 10000 nM
GI50 (BT-549 breast): 72.2 nM
TGI (BT-549 breast): > 7760 nM
GI50 (CAKI-1 renal): 93.1 nM
TGI (CAKI-1 renal): > 10000 nM
GI50 (CCRF-CEM leukemia): 498 nM
TGI (CCRF-CEM leukemia): > 10000 nM
GI50 (COLO 205 colon): 76.4 nM
TGI (COLO 205 colon): > 10000 nM
GI50 (DU-145 prostate): 754 nM
TGI (DU-145 prostate): > 10000 nM
GI50 (EKVX NSCLC): 859 nM
TGI (EKVX NSCLC): > 10000 nM
GI50 (HCC-2998 colon): 1560 nM
TGI (HCC-2998 colon): > 10000 nM
GI50 (HCT-116 colon): 167 nM
TGI (HCT-116 colon): > 10000 nM
GI50 (HCT-15 colon): 725 nM
TGI (HCT-15 colon): > 10000 nM
GI50 (HL-60(TB) leukemia): 433 nM
TGI (HL-60(TB) leukemia): > 10000 nM
GI50 (HOP-62 NSCLC): 797 nM
TGI (HOP-62 NSCLC): > 10000 nM
GI50 (HOP-92 NSCLC): 178 nM
TGI (HOP-92 NSCLC): 1400 nM
GI50 (HS 578T breast): 3990 nM
TGI (HS 578T breast): > 10000 nM
GI50 (HT29 colon): 165 nM
TGI (HT29 colon): > 10000 nM
GI50 (IGROV1 ovarian): 400 nM
TGI (IGROV1 ovarian): > 10000 nM
GI50 (K-562 leukemia): 436 nM
TGI (K-562 leukemia): > 10000 nM
GI50 (KM12 colon): 471 nM
TGI (KM12 colon): > 10000 nM
GI50 (LOX IMVI melanoma): 23.3 nM
TGI (LOX IMVI melanoma): 90.8 nM
GI50 (M14 melanoma): 192 nM
TGI (M14 melanoma): 649 nM
GI50 (MALME-3M melanoma): 565 nM
TGI (MALME-3M melanoma): > 5340 nM
GI50 (MCF7 breast): 684 nM
TGI (MCF7 breast): > 10000 nM
GI50 (MDA-MB-231 breast): 75.4 nM
TGI (MDA-MB-231 breast): 1800 nM
GI50 (MDA-MB-435): 359 nM
TGI (MDA-MB-435): 3060 nM
GI50 (MOLT-4 leukemia): 437 nM
TGI (MOLT-4 leukemia): > 10000 nM
GI50 (NCI-H226 lung): 253 nM
TGI (NCI-H226 lung): > 10000 nM
GI50 (NCI-H23 lung): 3240 nM
TGI (NCI-H23 lung): > 10000 nM
GI50 (NCI-H460 lung): 255 nM
TGI (NCI-H460 lung): > 10000 nM
GI50 (NCI-H522 lung): 252 nM
TGI (NCI-H522 lung): > 10000 nM
GI50 (NCI/ADR-RES ovarian): 1830 nM
TGI (NCI/ADR-RES ovarian): > 10000 nM
GI50 (OVCAR-3 ovarian): > 5480 nM
TGI (OVCAR-3 ovarian): > 10000 nM
GI50 (OVCAR-4 ovarian): > 3120 nM
TGI (OVCAR-4 ovarian): > 10000 nM
GI50 (OVCAR-5 ovarian): 112 nM
TGI (OVCAR-5 ovarian): > 10000 nM
GI50 (OVCAR-8 ovarian): 189 nM
TGI (OVCAR-8 ovarian): > 10000 nM
GI50 (PC-3 prostate): 870 nM
TGI (PC-3 prostate): > 10000 nM
GI50 (RPMI-8226 leukemia): 64.7 nM
TGI (RPMI-8226 leukemia): > 3750 nM
GI50 (RXF 393 renal): 267 nM
TGI (RXF 393 renal): > 10000 nM
GI50 (SF-268 CNS): 1470 nM
TGI (SF-268 CNS): > 10000 nM
GI50 (SF-295 CNS): 270 nM
TGI (SF-295 CNS): 923 nM
GI50 (SF-539 CNS): 437 nM
TGI (SF-539 CNS): > 10000 nM
GI50 (SK-MEL-2 melanoma): 1050 nM
TGI (SK-MEL-2 melanoma): 6910 nM
GI50 (SK-MEL-28 melanoma): 264 nM
TGI (SK-MEL-28 melanoma): 2870 nM
GI50 (SK-MEL-5 melanoma): 57.2 nM
TGI (SK-OV-3 ovarian): > 10000 nM
GI50 (SN12C renal): 284 nM
TGI (SN12C renal): > 10000 nM
GI50 (SNB-19 CNS): > 9570 nM
TGI (SNB-19 CNS): > 10000 nM
GI50 (SNB-75 CNS): 274 nM
TGI (SNB-75 CNS): > 5890 nM
GI50 (SR leukemia): 59 nM
TGI (SR leukemia): > 10000 nM
GI50 (SW-620 colon): 491 nM
TGI (SW-620 colon): > 10000 nM
GI50 (T-47D breast): 115 nM
TGI (T-47D breast): > 10000 nM
TGI (TK-10 renal): > 10000 nM
GI50 (U251 CNS): 1160 nM
TGI (U251 CNS): > 10000 nM
GI50 (UACC-257 melanoma): 276 nM
TGI (UACC-257 melanoma): 1170 nM
GI50 (UACC-62 melanoma): 155 nM
TGI (UACC-62 melanoma): 517 nM
GI50 (UO-31 renal): 1780 nM
TGI (UO-31 renal): 6740 nM
